Data: ChEMBL document CHEMBL2010674, “Structure based design of iminohydantoin BACE1 inhibitors: identification of an orally available, centrally active BACE1 inhibitor” (Bioorg Med Chem Lett, 2012)

Experiments:
Beta-secretase 2 = target: T1, Beta-secretase 2 (Homo sapiens, UniProt Q9Y5Z0)
T1 sequence (Q9Y5Z0 whole entry): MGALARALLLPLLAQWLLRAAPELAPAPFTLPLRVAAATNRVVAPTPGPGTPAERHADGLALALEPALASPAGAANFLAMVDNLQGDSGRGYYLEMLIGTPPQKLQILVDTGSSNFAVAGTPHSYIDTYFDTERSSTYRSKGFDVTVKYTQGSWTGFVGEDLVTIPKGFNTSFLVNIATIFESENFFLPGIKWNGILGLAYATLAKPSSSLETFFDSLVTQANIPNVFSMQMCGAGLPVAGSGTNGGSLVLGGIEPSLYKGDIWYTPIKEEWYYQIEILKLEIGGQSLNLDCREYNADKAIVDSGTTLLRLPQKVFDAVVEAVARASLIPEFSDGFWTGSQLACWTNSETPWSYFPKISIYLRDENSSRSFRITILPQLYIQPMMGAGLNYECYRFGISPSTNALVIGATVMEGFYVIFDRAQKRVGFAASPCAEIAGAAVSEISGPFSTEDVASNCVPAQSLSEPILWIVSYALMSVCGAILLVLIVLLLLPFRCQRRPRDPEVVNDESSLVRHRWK

Beta-secretase 1 [1] = target: T2, Beta-secretase 1 (Homo sapiens, UniProt P56817)
Beta-secretase 1 [2] = target: T2, Beta-secretase 1; remark: listed apart in the source
Description: Inhibition of BACE1 in HEK293 cells expressing APP swedish and london mutant assessed as decrease of amyloid-beta40 level after 4 hrs by electrochemiluminescence-based sandwich ELISA

[3] = AUC (0 to 6 hrs) in rat at 10 mg/kg, po; format: ADME, organism-based; parameters: time < 6 hr, dose 10 mg/kg, route oral; conditions: plasma
Rattus norvegicus [4] = assay: Antialzheimer activity in Sprague-Dawley rat assessed as reduction in amyloid beta40 level in plasma at 30 mg/kg, po after 3 hrs relative to vehicle treated control; format: functional; parameters: scale not given: the % may be the effect or the level left
[5] = Ratio of drug level in brain to plasma in Sprague-Dawley rat at 30 mg/kg, po; format: ADME, organism-based; parameters: dose 30 mg/kg, route oral; conditions: read-out: BPR
Rattus norvegicus [6] = assay: Antialzheimer activity in Sprague-Dawley rat assessed as reduction in amyloid beta40 level in CSF at 30 mg/kg, po after 3 hrs relative to vehicle treated control; format: functional; parameters: scale not given: the % may be the effect or the level left
[7] = Ratio of drug level in brain to plasma in rat at 10 mg/kg, po; format: ADME, organism-based; parameters: dose 10 mg/kg, route oral; conditions: read-out: BPR
Plasma = assay: Plasma concentration in Sprague-Dawley rat at 30 mg/kg, po; format: ADME, organism-based; parameters: dose 30 mg/kg, route oral; conditions: in vivo

T2 sequence (P56817 whole entry): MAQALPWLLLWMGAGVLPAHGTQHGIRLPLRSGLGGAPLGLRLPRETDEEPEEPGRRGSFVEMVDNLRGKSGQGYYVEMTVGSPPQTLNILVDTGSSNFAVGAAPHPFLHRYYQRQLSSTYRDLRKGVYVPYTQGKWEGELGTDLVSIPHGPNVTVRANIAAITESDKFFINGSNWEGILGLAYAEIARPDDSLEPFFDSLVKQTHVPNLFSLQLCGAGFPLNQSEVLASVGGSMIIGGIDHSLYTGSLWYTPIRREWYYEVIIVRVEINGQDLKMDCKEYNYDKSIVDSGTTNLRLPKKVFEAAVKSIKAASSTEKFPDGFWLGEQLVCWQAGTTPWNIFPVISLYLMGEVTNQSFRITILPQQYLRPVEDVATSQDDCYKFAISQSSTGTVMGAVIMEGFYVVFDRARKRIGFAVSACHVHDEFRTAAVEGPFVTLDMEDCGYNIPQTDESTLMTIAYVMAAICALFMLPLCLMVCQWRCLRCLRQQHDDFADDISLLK

Compound	Ki (Beta-secretase 1 [1]) [nM]	IC50 (Beta-secretase 1 [2]) [nM]	further results
Cc1cncc(-c2cccc(C3(C4CC4)NC(=N)N(C)C3=O)c2)c1 (configuration not stated)	250	640	Ki (Beta-secretase 2): 68 nM
CN1C(=N)N[C@@](c2cccc(-c3cncc(Cl)c3)c2)(C2CC2)C1=O	–	–	AUC(0-t) at 6 h [3]: 3.1 µM·h
CN1C(=N)NC(C)(c2cccc(-c3cccc(Cl)c3)c2)C1=O (configuration not stated)	720	4800	–
CCC1(c2cccc(-c3cccc(Cl)c3)c2)NC(=N)N(C)C1=O (configuration not stated)	450	5300	–
CC(C)C1(c2cccc(-c3cccc(Cl)c3)c2)NC(=N)N(C)C1=O (configuration not stated)	320	4600	–
CN1C(=N)NC(c2cccc(-c3cccc(Cl)c3)c2)(C2CC2)C1=O (configuration not stated)	47	1900	–
CN1C(=N)NC(c2cccc(-c3cccc(Cl)c3)c2)(C2CCC2)C1=O (configuration not stated)	110	2800	–
CN1C(=N)NC(c2cccc(-c3cccc(Cl)c3)c2)(C2CCCC2)C1=O (configuration not stated)	470	6900	–
CN1C(=N)NC(c2cccc(-c3cccc(Cl)c3)c2)(c2ccccn2)C1=O (configuration not stated)	860	5900	–
CN1C(=N)NC(c2cccnc2)(c2cccc(-c3cccc(Cl)c3)c2)C1=O (configuration not stated)	170	4400	–
CN1C(=N)NC(c2ccncc2)(c2cccc(-c3cccc(Cl)c3)c2)C1=O (configuration not stated)	> 10000	–	–
CN1C(=N)NC(c2cncnc2)(c2cccc(-c3cccc(Cl)c3)c2)C1=O (configuration not stated)	830	21000	–
CN1C(=N)NC(c2cccc(-c3cc(Cl)cc(Cl)c3)c2)(C2CC2)C1=O (configuration not stated)	30	2400	–
COc1cccc(-c2cccc(C3(C4CC4)NC(=N)N(C)C3=O)c2)c1 (configuration not stated)	–	–	Ki (Beta-secretase 2): 7.8 nM
CN1C(=N)NC(c2cccc(-c3cccc(C#N)c3)c2)(C2CC2)C1=O (configuration not stated)	130	940	Ki (Beta-secretase 2): 30 nM
CN1C(=N)NC(c2cccc(-c3cccnc3)c2)(C2CC2)C1=O (configuration not stated)	270	880	Ki (Beta-secretase 2): 360 nM
COc1cncc(-c2cccc(C3(C4CC4)NC(=N)N(C)C3=O)c2)c1 (configuration not stated)	100	390	Ki (Beta-secretase 2): 11 nM

Compound	Ki (Beta-secretase 1 [1]) [nM]	IC50 (Beta-secretase 1 [2]) [nM]	further results
CN1C(=N)NC(c2cccc(-c3cncc(C#N)c3)c2)(C2CC2)C1=O (configuration not stated)	270	610	Ki (Beta-secretase 2): 170 nM
CN1C(=N)NC(c2cccc(-c3cncc(F)c3)c2)(C2CC2)C1=O (configuration not stated)	160	800	Ki (Beta-secretase 2): 139 nM
CC#Cc1cncc(-c2cccc([C@@]3(C4CC4)NC(=N)N(C)C3=O)c2)c1	5.4	82	Activity (Rattus norvegicus [4]): 85%; AUC(0-t) at 6 h [3]: 17.9 µM·h; Kp [5]: 0.2; Activity (Rattus norvegicus [6]): 54%; Kp [7]: 0.3; concentration (Plasma): 4.2 µM
CN1C(=N)NC(c2ccccc2)(c2cccc(-c3ccccc3)c2)C1=O (racemic)	3300	–	–
COc1ccc(-c2cccc(C3(c4ccccc4)NC(=N)N(C)C3=O)c2)cc1 (racemic)	3800	–	–
CCOc1cccc(-c2cccc(C3(c4ccccc4)N=C(N)N(C)C3=O)c2)c1 (racemic)	460	–	–
CN1C(=N)NC(c2ccccc2)(c2cccc(F)c2)C1=O (racemic)	720	–	–
Cc1cccc(C2(c3ccccc3)N=C(N)N(C)C2=O)c1 (racemic)	550	–	–
CN1C(=O)C(c2ccccc2)(c2cccc(C#N)c2)N=C1N (racemic)	370	–	–
CN1C(=O)C(c2ccccc2)(c2cccc(-c3ccncc3)c2)N=C1N (racemic)	3800	–	–
CN1C(=N)NC(c2ccccc2)(c2cccc(-c3cnccn3)c2)C1=O (racemic)	310	–	–
Cc1cncc(-c2cccc(C3(c4ccccc4)NC(=N)N(C)C3=O)c2)c1 (racemic)	430	–	–
CN1C(=N)NC(c2ccccc2)(c2cccc(-c3cncc(C#N)c3)c2)C1=O (racemic)	470	–	–
CN1C(=N)NC(c2ccccc2)(c2cccc(-c3cncc(F)c3)c2)C1=O (racemic)	290	–	–
CN1C(=N)NC(c2ccccc2)(c2cccc(-c3cncc(Cl)c3)c2)C1=O (racemic)	90	–	–
CN1C(=O)C(c2ccccc2)(c2cccc(Cl)c2)N=C1N (racemic)	300	–	–
